Measured values: PMC8815882, “Screening the pandemic response box identified benzimidazole carbamates, Olorofim and ravuconazole as promising drug candidates for the treatment of eumycetoma” (PLoS Neglected Tropical Diseases, 2022)
Read-outs that look alike come from different tables or passages of the source.

Legend:
M. mycetomatis MM55 = test: IC50 determination, 2-fold dilution series 16 to 0.03125 μM; type: cell-based, Madurella mycetomatis; settings: for IC50 / IC90: Madurella mycetomatis
[1] = system: M. mycetomatis genome strain MM55; test: CLSI M38-A2 based in vitro susceptibility screening (XTT or resazurin), growth at fixed concentration; type: cell-based, Madurella mycetomatis; settings: Madurella mycetomatis
[2] = MM55, Table 3, benzimidazole carbamates, M. mycetomatis, read-out: IC50
[3] = 25 uM, mean of replicates, MM55, read-out: Percentage survival at 25um, 25 uM mean
[4] = 25 uM, replicate A, MM55, read-out: Percentage survival at 25um, 25 um A
[5] = 25 uM, replicate B, MM55, read-out: Percentage survival at 25um, 25 uM B
[6] = 25 uM, replicate C, MM55, read-out: Percentage survival at 25um, 25 uM C
[7] = mean of replicates, MM55, read-out: Percentage survival at 100um, 100 uM mean
[8] = replicate 1, MM55, read-out: Percentage survival at 100um, 100 uM A
[9] = replicate 2, MM55, read-out: Percentage survival at 100um, 100 uM A
[10] = replicate 3, MM55, read-out: Percentage survival at 100um, 100 uM A
[11] = MM55, replicate 1, read-out: IC50 1 um
[12] = MM55, replicate 2, read-out: IC50 2 um
[13] = MM55, replicate 3, read-out: IC50 3 um
[14] = 25 uM, replicate A, read-out: Percentage survival at 25um, 25 um A
[15] = mean of three replicates, read-out: Percentage survival at 100um, 100 uM mean
[16] = replicate 1, read-out: Percentage survival at 100um, 100 uM A (first replicate column)
[17] = replicate 2, read-out: Percentage survival at 100um, 100 uM A (second replicate column)
[18] = replicate 3, read-out: Percentage survival at 100um, 100 uM A (third replicate column)
[19] = 25 uM, mean of three replicates, read-out: Percentage survival at 25um, 25 uM mean
[20] = 25 uM, replicate B, read-out: Percentage survival at 25um, 25 uM B
[21] = 25 uM, replicate C, read-out: Percentage survival at 25um, 25 uM C
[22] = MM55, mean of three replicates, read-out: IC50 mean
[23] = MM55, replicate 1, read-out: IC90 1 um
[24] = MM55, replicate 2, read-out: IC90 2 um
[25] = MM55, replicate 3, read-out: IC90 3 um

IC50 (M. mycetomatis MM55; [11]) [µM] | IC50 (M. mycetomatis MM55; [12]) [µM] | IC50 (M. mycetomatis MM55; [13]) [µM] | Structure (SMILES) | activity at 25 µM [1, 3] [%] | activity at 25 µM [1, 4] [%] | activity at 25 µM [1, 5] [%] | activity at 25 µM [1, 6] [%] | activity at 100 µM [1, 7] [%] | activity at 100 µM [1, 8] [%] | activity at 100 µM [1, 9] [%] | activity at 100 µM [1, 10] [%] | Drug static or cidal (M. mycetomatis MM55) | activity at 25 µM [1, 14] [%] | activity at 100 µM [1, 15] [%] | activity at 100 µM [1, 16] [%] | activity at 100 µM [1, 18] [%] | activity at 25 µM [1, 20] [%] | activity at 25 µM [1, 21] [%] | other results
 |  |  | CCCOc1ccc2nc(NC(=O)OC)[nH]c2c1 [MMV002163, Oxibendazole, reference compound] |  |  |  |  |  |  |  |  |  |  |  |  |  |  |  | IC50 (M. mycetomatis MM55; [2]): 69.1 µM
> 25 | > 25 | > 25 | COc1cc(NS(=O)(=O)c2ccc(C)cc2)c2ncccc2c1 [MMV098836] | 6.7 | 6.32 | -0.482 | 14.3 | 6.45 | 4.22 | 0.942 | 14.2 | Static |  |  |  |  |  |  | IC50 (M. mycetomatis MM55; MM55, mean of replicates, read-out: IC50 mean): > 25 µM; IC90 (M. mycetomatis MM55; MM55, IC90, mean of replicates, read-out: IC90 mean): > 25 µM; IC90 (M. mycetomatis MM55; MM55, IC90, replicate 1, read-out: IC90 1 um): > 25 µM; IC90 (M. mycetomatis MM55; MM55, IC90, replicate 2, read-out: IC90 2 um): > 25 µM; IC90 (M. mycetomatis MM55; MM55, IC90, replicate 3, read-out: IC90 3 um): > 25 µM
 |  |  | Nc1c(C(=O)NCc2ccco2)c2nc3ccccc3nc2n1CCN1CCCCC1 [MMV099714] |  |  |  |  |  |  |  |  | Static | 45.3 | 3.55 | -0.102 | 3.69 |  |  | activity at 100 µM [1, 17]: 7.05%; activity at 25 µM ([1]; read-out: Percentage survival at 25um, 25 uM B): -3.06%; activity at 25 µM ([1]; read-out: Percentage survival at 25um, 25 uM C): 13%; activity at 25 µM ([1]; read-out: Percentage survival at 25um, 25 uM mean): 18.4%; IC50 (M. mycetomatis MM55; MM55, read-out: IC50 1 um): > 25 µM; IC50 (M. mycetomatis MM55; MM55, read-out: IC50 2 um): > 25 µM; IC50 (M. mycetomatis MM55; MM55, read-out: IC50 3 um): > 25 µM; IC50 (M. mycetomatis MM55; MM55, read-out: IC50 mean): > 25 µM; IC90 (M. mycetomatis MM55; MM55, read-out: IC90 1 um): > 25 µM; IC90 (M. mycetomatis MM55; MM55, read-out: IC90 2 um): > 25 µM; IC90 (M. mycetomatis MM55; MM55, read-out: IC90 3 um): > 25 µM; IC90 (M. mycetomatis MM55; MM55, read-out: IC90 mean): > 25 µM
18.7 | 16.3 | 16.4 | N=c1n(CCN2CCCCC2)c2ccccc2n1CC(O)COc1ccc(Cl)cc1Cl (stereo not drawn) [MMV394033] |  |  |  |  |  |  |  |  | Cidal | -10.3 | -2.82 | -5.36 | -0.0169 | -2.83 | -0.144 | activity at 25 µM [1, 19]: -4.41%; Percent fungal survival at 100 µM [1, 17]: -3.08%; IC50 (M. mycetomatis MM55; [22]): 17.1 µM; IC90 (M. mycetomatis MM55; [23]): > 25 µM; IC90 (M. mycetomatis MM55; [24]): 23.5 µM; IC90 (M. mycetomatis MM55; [25]): 23.7 µM
16.5 | 15.9 | 16.6 | Oc1c(C(Nc2ccccn2)c2ccccc2)ccc2cccnc12 (stereo not drawn) [MMV565773] |  |  |  |  |  |  |  |  | Cidal | 9.67 | 11.7 | 9.08 | 17.8 | 6.46 | 30.1 | activity at 25 µM [1, 19]: 15.4%; Percent fungal survival at 100 µM [1, 17]: 8.24%; IC50 (M. mycetomatis MM55; [22]): 16.3 µM; IC90 (M. mycetomatis MM55; MM55, mean of three replicates, read-out: IC90 mean): 24.5 µM; IC90 (M. mycetomatis MM55; [23]): 24.2 µM; IC90 (M. mycetomatis MM55; [24]): 24.9 µM; IC90 (M. mycetomatis MM55; [25]): 24.4 µM
 |  |  | CCCCOC(=O)Nc1cc2nc(C3CCCCC3)[nH]c2cc1N1CCCC1 [MMV687730] |  |  |  |  |  |  |  |  |  |  |  |  |  |  |  | IC50 (M. mycetomatis MM55; [2]): 11.6 µM
 |  |  | Cc1cc(CCOc2c(C)cc(-c3nnn(C)n3)cc2C)on1 [MMV1782349] | 75.6 | 84.4 | 90 | 52.4 | 52.1 | 44.9 | 65 | 46.2 |  |  |  |  |  |  |  | 
 |  |  | CC(C)Oc1ccc(-n2cnc3cc(/C=C\c4ccc(C(C)(C)O)cc4)ccc32)cc1 [MMV1782350] | 60.8 | 60 | 63 | 59.5 | 55.5 | 57.8 | 56.4 | 52.3 |  |  |  |  |  |  |  | 
 |  |  | O=C(NC(=O)N1CCCc2ccccc21)c1cccc(Cl)c1 [MMV1782351] |  |  |  |  |  |  |  |  |  | 96.8 |  |  |  | 101 | 78.3 | activity at 25 µM ([1]; 25 uM, mean, read-out: Percentage survival at 25um, 25 uM mean): 92%; activity at 100 µM ([1]; mean, read-out: Percentage survival at 100um, 100 uM mean): 75.7%; activity at 100 µM ([1]; replicate (first column), read-out: Percentage survival at 100um, 100 uM A): 73.9%; activity at 100 µM ([1]; replicate (second column), read-out: Percentage survival at 100um, 100 uM A): 74.5%; activity at 100 µM ([1]; replicate (third column), read-out: Percentage survival at 100um, 100 uM A): 78.6%
